Source: PMC10112521, “High-throughput AR dimerization assay identifies androgen disrupting chemicals and metabolites” (Frontiers in Toxicology, 2023)
Where two headings read alike, the source gives them in different places.

Legend:
[1] = test system: full-length human AR and the receptor interacting domain (RID) of SRC1; parameters: method as in U.S. EPA, 2002b; details: cited from earlier work
[2] = test system: human AR (LBD and AF2 domains) and the RID of human SRC2; parameters: method as in U.S. EPA, 2002b; details: activity call, agonist mode, 2 h; invitroDBv3.4 ref U.S. EPA, 2002b; cited from earlier work
[3] = test system: human AR (LBD and AF2 domains) and the RID of human SRC2; parameters: method as in U.S. EPA, 2002b; details: cited from earlier work
AR = test system: AR; parameters: method as in Kleinstreuer et al., 2017; details: 2017, cited from earlier work; for Agonist reference: AR agonist reference class ref Kleinstreuer et al.; for Antagonist reference: AR antagonist reference class ref Kleinstreuer et al.
AR2 cells (HepG2-AR2) [4] = test: Alamar Blue (resazurin) post hoc cell viability / cytotoxicity assay in AR2 cells; details: spid Viability, sheet antagonist_fits; for hill_tp (Hill model top): 0 where win_model is Constant
Description: (§1) For antagonist mode and cytotoxicity data, well-level normalized response (resp) was calculated as: resp=100 * RLU−bval/pval−bval where pval is the median RLU value of the MEC positive control wells (minimum four wells).

human AR [5] = molecular target: T1, human AR (Homo sapiens, UniProt P10275); test: AR2 assay, agonist mode: ligand-dependent AR homodimerization (NanoBiT luciferase complementation) in stable HepG2-AR2 cells; format: cell-based; details: for AR2 agonist: activity call, agonist mode; for hill_tp: Hill model top (efficacy); for max_med: maximum median response; for win_model: winning concentration-response model (Constant, Hill, Gain-Loss);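 on hill tp: Log2 fold change of luminescence over DMSO vehicle wells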;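 on max med: Log2 fold change of luminescence over DMSO vehicle wells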
T1 sequence (P10275 1-920) 1: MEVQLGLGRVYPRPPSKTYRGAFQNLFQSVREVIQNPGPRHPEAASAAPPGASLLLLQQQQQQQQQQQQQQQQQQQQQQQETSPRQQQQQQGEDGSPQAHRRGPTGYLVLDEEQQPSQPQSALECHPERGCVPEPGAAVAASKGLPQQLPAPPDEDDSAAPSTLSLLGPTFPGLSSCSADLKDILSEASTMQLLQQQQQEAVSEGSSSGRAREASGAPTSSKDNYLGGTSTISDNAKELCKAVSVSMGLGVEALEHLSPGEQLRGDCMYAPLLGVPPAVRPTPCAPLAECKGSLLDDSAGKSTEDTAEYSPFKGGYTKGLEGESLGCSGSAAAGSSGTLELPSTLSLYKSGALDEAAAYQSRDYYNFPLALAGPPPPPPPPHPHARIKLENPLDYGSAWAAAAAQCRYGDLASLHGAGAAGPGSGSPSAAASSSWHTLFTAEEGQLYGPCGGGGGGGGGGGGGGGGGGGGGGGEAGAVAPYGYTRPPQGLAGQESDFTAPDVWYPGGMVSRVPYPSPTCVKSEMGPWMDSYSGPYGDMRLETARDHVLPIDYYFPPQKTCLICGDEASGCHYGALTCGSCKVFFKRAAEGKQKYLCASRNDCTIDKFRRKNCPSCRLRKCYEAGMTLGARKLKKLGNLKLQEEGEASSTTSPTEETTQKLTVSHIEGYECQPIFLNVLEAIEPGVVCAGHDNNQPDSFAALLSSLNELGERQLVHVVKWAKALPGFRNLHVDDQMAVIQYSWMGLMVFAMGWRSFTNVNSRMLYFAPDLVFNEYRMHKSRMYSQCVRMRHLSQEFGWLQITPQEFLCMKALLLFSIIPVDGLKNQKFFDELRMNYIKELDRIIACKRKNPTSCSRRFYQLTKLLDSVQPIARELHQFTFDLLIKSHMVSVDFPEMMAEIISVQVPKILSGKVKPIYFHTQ
T1 sequence (P10275 1-920) 2: T1 sequence (P10275 1-920) 1

human AR [6] = molecular target: T1, human AR; test: AR2 assay, antagonist mode: disruption of R1881 (10 nM)-induced AR homodimerization in HepG2-AR2 cells; format: cell-based
AR2 cells (HepG2-AR2) [7] = test system: AR2 cells (HepG2-AR2)
Description: as §1

human AR [8] = molecular target: T1, human AR; test: cell-based; parameters: species or system AR2 cells (HepG2-AR2); NanoLuc complementation AR homodimerization, antagonist mode, loss of agonist-induced luminescence, AC50 by Hill fit; details: hill_ga, antagonist mode, 10 nM agonist stimulus, 18 h, no CYP expressed
human AR [9] = molecular target: T1, human AR; test: cell-based; parameters: species or system AR2 cells (HepG2-AR2); NanoLuc complementation AR homodimerization, agonist mode, luminescence gain, AC50 by Hill fit; details: hill_ga, spid=Bgal; agonist mode, 18 h, no CYP expressed
[10] = sheet agonist_fits, 0 given where win_model is Constant
[11] = spid AR_antagonist, sheet antagonist_fits
[12] = spid AR_antagonist, sheet antagonist_fits, 0 where win_model is Constant
[13] = activity call, 8 h, single protocol detects agonists and antagonists, invitroDBv3.4 ref U.S. EPA, 2002b
[14] = activity call, 16 h, single protocol detects agonists and antagonists, invitroDBv3.4 ref U.S. EPA, 2002b
[15] = activity call, antagonist mode, 2 h, invitroDBv3.4 ref U.S. EPA, 2002b

Row | SMILES | UPitt agonist [2] | Agonist reference (AR) | Antagonist reference (AR) | max_med (maximum median response) (AR2 cells (HepG2-AR2) [4]) | hill_tp (Hill model top) (AR2 cells (HepG2-AR2) [4]) | AR2 agonist (human AR [5]; 18 h) | hill_tp (human AR [5]; [10]) | max_med (human AR [5]; sheet agonist_fits) | win_model (human AR [5]; sheet agonist_fits) | hill_tp (Hill model top) (human AR [6]) | max_med (maximum median response) (human AR [6]) | win_model (winning concentration-response model) (human AR [6]; [11]) | hill_gw (Hill model slope) (human AR [6]; [12]) | hill_ga (Hill model log AC50) (AR2 cells (HepG2-AR2) [7]) | OT 8 hr [1, 13] | OT 16 hr [1, 14] | UPitt antagonist [3, 15] | Antagonist reference (AR; Supplementary Table S1) | further results
1 | C[C@]12CCC(=O)C=C1CC[C@@H]1[C@@H]2CC[C@@]2(C)[C@H]1CC[C@]2(C)O [17-Methyltestosterone] | 0 | Strong | Inactive | 23.6208 | 30.9505 |  |  |  |  |  |  |  |  |  |  |  |  |  | OT 8 hr [1]: 1; OT 16 hr [1]: 1; UPitt antagonist [3]: 0; Agonist reference (AR; Supplementary Table S1): Strong
2 | CCCCNC(=O)n1c(NC(=O)OC)nc2ccccc21 [Benomyl] | 0 | Inactive |  | 28.9418 | 26.9649 | 0 | 0 | 0.04446 | Constant | 30.7847 | 31.5571 | Hill | 3.063 | 0.6267 | 0 | 1 |  |  | 
3 | CC(O)(CS(=O)(=O)c1ccc(F)cc1)C(=O)Nc1ccc(C#N)c(C(F)(F)F)c1 (centres unmarked) [Bicalutamide] |  |  | Strong | 19.8696 | 21.5759 |  |  |  |  |  |  |  |  |  | 1 | 1 | 1 | Strong | hill_tp (Hill model top) (AR2 cells (HepG2-AR2) [4]; listed as BICAL): 57.2356; max_med (maximum median response) (AR2 cells (HepG2-AR2) [4]; listed as BICAL): 25.4903
4 | CC(C)(c1ccc(O)cc1)c1ccc(O)cc1 [Bisphenol A] |  |  | Moderate | 20.3748 | 26.326 |  | 0.2654 | 0.1199 | Gain-Loss |  |  | Hill | 1.098 |  | 0 | 1 | 1 | Moderate | activity call in agonist mode (human AR [5]; 128-chemical evaluation, 18 h, active = maximal median response >5*bmad): tested negative; hill_gw (human AR [5]; sheet agonist_fits, Hill model gain slope (Hill coefficient), 0 given where win_model is Constant): 0.5365; AR2 antagonist (human AR [6]; activity call, antagonist mode, 18 h): 1; max_med (maximum median response) (human AR [6]; [11]): 101.007; hill_tp (Hill model top) (human AR [6]; [12]): 118.275; AC50 (human AR [8]; spid=Bgal): 13.1 µM; AC50 (human AR [8]; spid=No_RNA): 15.9 µM; AC50 (human AR [9]): > 99.9 µM
5 | COC(=O)Nc1nc2ccccc2[nH]1 [Carbendazim] | 0 | Inactive |  | 17.1488 | 11.742 | 0 | 0 | 0.02367 | Constant | 18.0536 | 16.7598 | Hill | 8 | 1.227 | 0 | 1 |  |  | 
